The test system of assay [1] is Mycobacterium tuberculosis. The assay can be described thus: Antitubercular activity against Mycobacterium tuberculosis H37Rv after 4 days by MABA assay. The class given is functional. As to conditions: 96 h. Background: The colour change of resazurin is a common sign of viable cells or microbes.
In the next assay the test system is Vero. The assay can be described thus: Cytotoxicity against african green monkey Vero cells. The note with it: Chlorocebus sabaeus. It is filed as cell-based.
A short description of assay [2]: Selectivity index, ratio of IC50 for african green monkey Vero cells to MIC for Mycobacterium tuberculosis H37Rv. The class given is functional.
Assay [3] deals with Mycobacterium tuberculosis. The assay can be described thus: Antitubercular activity against Mycobacterium tuberculosis H37Rv at 6.25 ug/mL after 4 days by MABA assay. As to conditions: 96 h. It is filed as functional.

Converted amounts (≈) assume the structure as drawn.

As usually defined, the MIC is the lowest concentration found to suppress growth. As a reminder, the IC50 is the midpoint of a concentration-inhibition curve. As usually defined, the inhibition is the share of the control response that was lost under treatment. Molecule `CCOC(=O)C1=C(C)N(c2ccccc2C)C(C)=C(C(=O)OCC)C1c1cn(-c2ccccc2)nc1-c1ccccc1` showed an MIC in assay [1] of 3.13 µg/mL (≈ 5.57 µM). In the assay with Vero, this molecule displayed an IC50 of over 10 µg/mL. In addition, the “Selectivity Index” value in assay [2] is given as over 3.2. Moreover, in assay [3], the inhibition at 6.25 µg/mL was determined as 95%.
Take `CCOC(=O)C1=C(C)N(c2ccc(C)cc2)C(C)=C(C(=O)OCC)C1c1cn(-c2ccccc2)nc1-c1ccccc1`: the MIC in assay [1] stood at 48 µg/mL (≈ 85.5 µM). In assay [3], this molecule yielded an inhibition at 6.25 µg/mL of 48%.
`NNC(=O)c1ccncc1` [ISONIAZID] registered an MIC in assay [1] of 0.03 µg/mL (≈ 0.219 µM).
In assay [3], `CC(=O)C1=C(C)N(c2cccc(Cl)c2)C(C)=C(C(C)=O)C1c1cn(-c2ccccc2)nc1-c1ccccc1` had an inhibition at 6.25 µg/mL of 76%.
As for `CCOC(=O)C1=C(C)N(c2cccc(C)c2)C(C)=C(C(=O)OCC)C1c1cn(-c2ccccc2)nc1-c1ccccc1`, 1.56 µg/mL (≈ 2.78 µM) was the least that counted as inhibitory in assay [1] (MIC). For the same molecule, the half-maximal inhibitory concentration (IC50) in the assay on Vero was over 10 µg/mL. For the same molecule, the “Selectivity Index” value in assay [2] is on record as over 6.4. The inhibition at 6.25 µg/mL in assay [3] amounted to 98%.
Taken in the same sequence, the figures for `CCOC(=O)C1=C(C)N(c2ccccc2Cl)C(C)=C(C(=O)OCC)C1c1cn(-c2ccccc2)nc1-c1ccccc1` were 0.02 µg/mL (≈ 0.0344 µM), over 10 µg/mL, over 500 and 100%.
With `CCOC(=O)C1=C(C)N(c2ccc(Cl)cc2)C(C)=C(C(=O)OCC)C1c1cn(-c2ccccc2)nc1-c1ccccc1`, the inhibition at 6.25 µg/mL in assay [3] is 74%.
Molecule `COc1ccc(N2C(C)=C(C(C)=O)C(c3cn(-c4ccccc4)nc3-c3ccccc3)C(C(C)=O)=C2C)cc1` returned an inhibition at 6.25 µg/mL in assay [3] of 69%.
The molecule `COc1cccc(N2C(C)=C(C(C)=O)C(c3cn(-c4ccccc4)nc3-c3ccccc3)C(C(C)=O)=C2C)c1` registered an inhibition at 6.25 µg/mL in assay [3] of 77%.
The same measure, in the same setting: with `CC(=O)C1=C(C)N(c2ccccc2Cl)C(C)=C(C(C)=O)C1c1cn(-c2ccccc2)nc1-c1ccccc1` the figure was 59%.
For `CC(=O)C1=C(C)N(c2ccccc2C)C(C)=C(C(C)=O)C1c1cn(-c2ccccc2)nc1-c1ccccc1`, the MIC in assay [1] was 3.13 µg/mL (≈ 6.24 µM). Also, the IC50 in the assay on Vero was over 10 µg/mL. Besides, the “Selectivity Index” value in assay [2] is over 3.2. In assay [3], this molecule yielded an inhibition at 6.25 µg/mL of 97%.
In assay [3], `CC(=O)C1=C(C)N(c2ccccc2)C(C)=C(C(C)=O)C1c1cn(-c2ccccc2)nc1-c1ccccc1` had an inhibition at 6.25 µg/mL of 48%.
`CCOC(=O)C1=C(C)N(c2cccc(Cl)c2)C(C)=C(C(=O)OCC)C1c1cn(-c2ccccc2)nc1-c1ccccc1` registered an MIC in assay [1] of 1.56 µg/mL (≈ 2.68 µM). Further, in the assay on Vero, the IC50 stood at 7.08 µg/mL (≈ 12.2 µM). The “Selectivity Index” value in assay [2] came out at 4.5. The molecule further came in with an inhibition at 6.25 µg/mL in assay [3] of 97%.
In assay [3], `COc1ccccc1N1C(C)=C(C(C)=O)C(c2cn(-c3ccccc3)nc2-c2ccccc2)C(C(C)=O)=C1C` displayed an inhibition at 6.25 µg/mL of 25%.
The same measure, in the same setting: with `CC(=O)C1=C(C)N(c2ccc(Cl)cc2)C(C)=C(C(C)=O)C1c1cn(-c2ccccc2)nc1-c1ccccc1` the figure was 29%; with `CCOC(=O)C1=C(C)N(c2ccc(OC)cc2)C(C)=C(C(=O)OCC)C1c1cn(-c2ccccc2)nc1-c1ccccc1`, 33%.
Still for that read-out and setting: as for `CC(=O)C1=C(C)N(c2ccc(C)cc2)C(C)=C(C(C)=O)C1c1cn(-c2ccccc2)nc1-c1ccccc1`, the figure is 34%; as for `CCOC(=O)C1=C(C)N(c2cccc(OC)c2)C(C)=C(C(=O)OCC)C1c1cn(-c2ccccc2)nc1-c1ccccc1`, 55%.
Same read-out and setting: with `CCOC(=O)C1=C(C)N(c2ccccc2OC)C(C)=C(C(=O)OCC)C1c1cn(-c2ccccc2)nc1-c1ccccc1` the figure was 39%.
Turning to `CC(=O)C1=C(C)N(c2cccc(C)c2)C(C)=C(C(C)=O)C1c1cn(-c2ccccc2)nc1-c1ccccc1`, the MIC in assay [1] stood at 6.25 µg/mL (≈ 12.5 µM). Further, the IC50 in the assay with Vero was over 10 µg/mL. In assay [2], the “Selectivity Index” value is over 1.6. This molecule also returned an inhibition at 6.25 µg/mL in assay [3] of 98%.
Taken in the same sequence, the figures for `CCOC(=O)C1=C(C)N(c2ccccc2)C(C)=C(C(=O)OCC)C1c1cn(-c2ccccc2)nc1-c1ccccc1` were 1.56 µg/mL (≈ 2.85 µM), over 10 µg/mL, over 6.4 and 96%.

For the origin of these results see ChEMBL document CHEMBL1817641, “Synthesis and biological evaluation of some novel N-aryl-1,4-dihydropyridines as potential antitubercular agents” (Bioorg Med Chem Lett, 2011).
